# Measurements: US8877748B2, “Heterocyclic fused anthraquinone derivatives, manufacturing method and pharmaceutical composition using thereof” (National Defense Medical Center, priority 2012, dated 2014)
# Tests used:
# [1] = test system: TK-10; assay: NCI one-dose screening, renal cancer TK-10; type: cell-based, human; details: 10 μM
# [2] = test system: 786-O; assay: NCI one-dose screening, renal cancer 786-O; type: cell-based, human; details: 10 μM
# [3] = test system: OVCAR-3; assay: NCI one-dose screening, ovarian cancer OVCAR-3; type: cell-based, human; details: 10 μM
# [4] = test system: COLO 205; assay: NCI one-dose screening, colon cancer COLO 205; type: cell-based, human; details: 10 μM
# [5] = test system: HL-60, TB; assay: NCI one-dose screening, leukemia HL-60, TB; type: cell-based, human; details: 10 μM
# [6] = test system: CCRF-CEM; assay: NCI screening platform one-dose single concentration screening, leukemia CCRF-CEM; type: cell-based, human; details: 10 μM
# [7] = test system: OVCAR-4; assay: NCI one-dose screening, ovarian cancer OVCAR-4; type: cell-based, human; details: 10 μM
# [8] = test system: NCI-H322M; assay: NCI one-dose screening, non-small cell lung cancer NCI-H322M; type: cell-based, human; details: 10 μM; Non-small cell lung cancer
# [9] = test system: HOP-62; assay: NCI one-dose screening, non-small cell lung cancer HOP-62; type: cell-based, human; details: 10 μM
# [10] = test system: KM12; assay: NCI one-dose screening, colon cancer KM12; type: cell-based, human; details: 10 μM
# [11] = test system: SF-539; assay: NCI one-dose screening, CNS cancer SF-539; type: cell-based, human; details: 10 μM
# [12] = test system: PRMI-8226 cell line; assay: NCI one-dose screening, leukemia PRMI-8226; type: cell-based, human; details: 10 μM
# [13] = test system: T-47D; assay: NCI one-dose screening, breast cancer T-47D; type: cell-based, human; details: 10 μM
# [14] = test system: MOLT-4; assay: NCI one-dose screening, leukemia MOLT-4; type: cell-based, human; details: 10 μM
# [15] = test system: PC-3 prostate cancer cell line; assay: SRB assay cell viability, PC-3 prostate cancer cell line; type: cell-based, human; details: PC-3 prostate cancer cell line, Table II prints no unit, μM printed, read-out: SRB assay: 50% inhibition of cancer cell proliferation of sample concentration (IC50) of PC-3 prostate cancer cell line
# [16] = test system: SF-295; assay: NCI one-dose screening, CNS cancer SF-295; type: cell-based, human; details: 10 μM
# [17] = test system: SK-MEL-2; assay: NCI one-dose screening, melanoma SK-MEL-2; type: cell-based, human; details: 10 μM
# [18] = test system: SK-MEL-28; assay: NCI one-dose screening, melanoma SK-MEL-28; type: cell-based, human; details: 10 μM
# [19] = test system: SN12C; assay: NCI one-dose screening, renal cancer SN12C; type: cell-based, human; details: 10 μM
# [20] = test system: SNB-19; assay: NCI one-dose screening, CNS cancer SNB-19; type: cell-based, human; details: 10 μM
# [21] = test system: IGROV1; assay: NCI one-dose screening, ovarian cancer IGROV1; type: cell-based, human; details: 10 μM
# [22] = test system: MCF7; assay: NCI one-dose screening, breast cancer MCF7; type: cell-based, human; details: 10 μM
# [23] = test system: SR; assay: NCI one-dose screening, leukemia SR; type: cell-based, human; details: 10 μM
# [24] = test system: LOX IMVI; assay: NCI one-dose screening, melanoma LOX IMVI; type: cell-based, human; details: 10 μM
# [25] = test system: M14; assay: NCI one-dose screening, melanoma M14; type: cell-based, human; details: 10 μM
# [26] = test system: NCI-H23; assay: NCI one-dose screening, non-small cell lung cancer NCI-H23; type: cell-based, human; details: 10 μM
# [27] = test system: MALME-3M; assay: NCI one-dose screening, melanoma MALME-3M; type: cell-based, human; details: 10 μM
# [28] = test system: DU145; assay: NCI one-dose screening, prostate cancer DU145; type: cell-based, human; details: 10 μM
# [29] = test system: SNB-75; assay: NCI one-dose screening, CNS cancer SNB-75; type: cell-based, human; details: 10 μM
# [30] = test system: SK-OV-3; assay: NCI one-dose screening, ovarian cancer SK-OV-3; type: cell-based, human; details: 10 μM
# [31] = test system: RXF, 393; assay: NCI one-dose screening, renal cancer RXF, 393; type: cell-based, human; details: 10 μM
# [32] = test system: MDA-MB-231/ATCC; assay: NCI one-dose screening, breast cancer MDA-MB-231/ATCC; type: cell-based, human; details: 10 μM
# [33] = NCI one-dose screening, renal cancer A489; type: cell-based, human; details: 10 μM
# [34] = test system: PC-3; assay: NCI one-dose screening, prostate cancer PC-3; type: cell-based, human; details: 10 μM
# [35] = test system: K562cell line; assay: NCI one-dose screening, leukemia K562; type: cell-based, human; details: 10 μM
# [36] = test system: NCI-H522; assay: NCI one-dose screening, non-small cell lung cancer NCI-H522; type: cell-based, human; details: 10 μM
# [37] = test system: MDA-MB-468; assay: NCI one-dose screening, breast cancer MDA-MB-468; type: cell-based, human; details: 10 μM
# [38] = test system: UACC-62; assay: NCI one-dose screening, melanoma UACC-62; type: cell-based, human; details: 10 μM
# [39] = test system: HCT-15; assay: NCI one-dose screening, colon cancer HCT-15; type: cell-based, human; details: 10 μM
# [40] = test system: A549/ATCC; assay: NCI one-dose screening, non-small cell lung cancer A549/ATCC; type: cell-based, human; details: 10 μM
# [41] = test system: SF-268; assay: NCI one-dose screening, CNS cancer SF-268; type: cell-based, human; details: 10 μM
# [42] = test system: UACC-257; assay: NCI one-dose screening, melanoma UACC-257; type: cell-based, human; details: 10 μM
# [43] = test system: UO-31; assay: NCI one-dose screening, renal cancer UO-31; type: cell-based, human; details: 10 μM
# [44] = test system: CAKI-1; assay: NCI one-dose screening, renal cancer CAKI-1; type: cell-based, human; details: 10 μM
# [45] = test system: HS 578-T; assay: NCI one-dose screening, breast cancer HS 578-T; type: cell-based, human; details: 10 μM; Breast cancer
# [46] = test system: U251; assay: NCI one-dose screening, CNS cancer U251; type: cell-based, human; details: 10 μM
# [47] = test system: SK-MEL-5; assay: NCI one-dose screening, melanoma SK-MEL-5; type: cell-based, human; details: 10 μM
# [48] = test system: BT-549; assay: NCI one-dose screening, breast cancer BT-549; type: cell-based, human; details: 10 μM
# [49] = test system: human tumor cell lines; assay: NCI one-dose screening, Mean / Delta / Range of growth percent over all tested cell lines; type: cell-based; details: 10 μM
# [50] = test system: NCI-H460; assay: NCI one-dose screening, non-small cell lung cancer NCI-H460; type: cell-based, human; details: 10 μM
# [51] = test system: HCT-116; assay: NCI one-dose screening, colon cancer HCT-116; type: cell-based, human; details: 10 μM
# [52] = test system: OVCAR-8; assay: NCI one-dose screening, ovarian cancer OVCAR-8; type: cell-based, human; details: 10 μM
# [53] = test system: HOP-92; assay: NCI one-dose screening, non-small cell lung cancer HOP-92; type: cell-based, human; details: 10 μM
# [54] = test system: HCC-2998; assay: NCI one-dose screening, colon cancer HCC-2998; type: cell-based, human; details: 10 μM
structure (smiles),measurement,setting,value
"O=C1c2ccccc2C(=O)c2c1cc(Cl)c1nsnc21 [C2, 4-Chloro-anthraquinone[2,1-c][1,2,5] thiadiazole-6,11-dione]",Growth Percent TK-10,[1],134.06%
same,Growth Percent 786-0,[2],102.14%
same,Growth Percent OVCAR-3,[3],49.88%
same,Growth Percent COLO 205,[4],99.08%
same,Growth Percent HL-60(TB),[5],1.87%
same,Growth Percent CCRF-CEM,[6],−41.78%
same,Growth Percent OVCAR-4,[7],−75.03%
same,Growth Percent NCI-H322M,[8],75.02%
same,Growth Percent HOP-62,[9],82.19%
same,Growth Percent KM12,[10],95.88%
same,Growth Percent SF-539,[11],108.52%
same,Growth Percent RPMI-8226,[12],27.81%
same,Growth Percent T-47D,[13],−54.59%
same,Growth Percent MOLT-4,[14],−34.12%
same,IC50,[15],13.5 µM
same,Growth Percent SF-295,[16],109.08%
same,Growth Percent SK-MEL-2,[17],0.21%
same,Growth Percent SK-MEL-28,[18],131.75%
same,Growth Percent SN12C,[19],71.92%
same,Growth Percent SNB-19,[20],105.75%
same,Growth Percent IGROV1,[21],52.47%
same,Growth Percent MCF7,[22],65.36%
same,Growth Percent SR,[23],−23.86%
same,Growth Percent LOX IMVI,[24],10.23%
same,Growth Percent M14,[25],102.73%
same,Growth Percent NCI-H23,[26],100.39%
same,Growth Percent MALME-3M,[27],97.09%
same,Growth Percent DU145,[28],96.95%
same,Growth Percent SNB-75,[29],85.25%
same,Growth Percent SK-OV-3,[30],109.05%
same,Growth Percent RXF 393,[31],71.92%
same,Growth Percent MDA-MB-231/ATCC,[32],−23.35%
same,Growth Percent A498,[33],93.79%
same,Growth Percent PC-3,[34],23.54%
same,Growth Percent K562,[35],2.44%
same,Growth Percent NCI-H522,[36],100.18%
same,Growth Percent MDA-MB-468,[37],−88.31%
same,Growth Percent UACC-62,[38],72.91%
same,Growth Percent HCT-15,[39],96.8%
same,Growth Percent A549/ATCC,[40],103.21%
same,Growth Percent SF-268,[41],37.03%
same,Growth Percent UACC-257,[42],76.09%
same,Growth Percent UO-31,[43],80.15%
same,Growth Percent CAKI-1,[44],96.51%
same,Growth Percent HS 578T,[45],72.54%
same,Growth Percent U251,[46],29.19%
same,Growth Percent SK-MEL-5,[47],72.45%
same,Growth Percent BT-549,[48],101.5%
same,Growth Percent Delta,[49]; delta over all cell lines,143.22%
same,Growth Percent Mean,[49]; mean over all cell lines,54.91%
same,Growth Percent Range,[49]; range over all cell lines,222.37%
same,Growth Percent NCI-H460,[50],108.2%
same,Growth Percent HCT-116,[51],48.15%
same,Growth Percent OVCAR-8,[52],−4.57%
same,Growth Percent HOP-92,[53],75.8%
same,Growth Percent HCC-2998,[54],105.67%
